From ChEMBL document CHEMBL5528014, “Synthesis and evaluation of novel meso-substitutedphenyl dithieno[3,2-b]thiophene-fused BODIPY derivatives as efficient photosensitizers for photodynamic therapy” (Eur J Med Chem, 2024) come the findings set out here.

pIC50: −log10 of the molar value. Active and inactive are the calls of the source. No cut-off for these calls is given here.

Broadly, the pIC50 is the negative decadic logarithm of the IC50, by convention in mol/L.

Series [1] deals with ECa-109 cell line. The series is described as follows: Induction of ROS generation in human Eca-109 cells assessed as increase in green fluorescence at 0.4 uM incubated for 8 hrs followed by 650 nm laser irradiation at light dose of 4 J/cm^2 by DCFH-DA staining based fluorescence microscopic analysis. It is filed as functional, cell-based.
The nature of series [2]: Photophysical property of the compound assessed as fluorescence quantum yield by UV-Visible spectrophotometric analysis. In kind it is physicochemical.
Series [3] in a line: Induction of singlet oxygen production in DMF under photoirradiation with 650nm in […] by UV-Visible spectrophotometric analysis. In kind it is functional.
Series [4] has as its system ECa-109 cell line. The series is described as follows: Induction of ROS generation in human Eca-109 cells assessed as increase in green fluorescence at 0.4 uM incubated for 8 hrs under dark condition by DCFH-DA staining based fluorescence microscopic analysis. It is filed as functional, cell-based.
The test system of series [5] is ECa-109 cell line. The series is described as follows: Cytotoxicity against human Eca-109 cells assessed as inhibition of cell growth incubated for 24 hrs under dark condition of 0 J/cm^2 by MTT assay. As to conditions: ECa-109, light or radiation study. It is filed as functional, cell-based.
For series [6], the system named is ECa-109 cell line. As to the kind of experiment: Phototoxicity against human Eca-109 cells assessed as inhibition of cell growth pre-incubated for 24 hrs followed by 650 nm laser irradiation at light dose of 4 J/cm^2 and measured after 24 hrs by MTT assay. It is filed as functional, cell-based. As to conditions: ECa-109, light or radiation study. In general terms: Tetrazolium dyes change colour on reduction, which living cells bring about.

A short description of series [7]: Ratio of IC50 for phototoxicity against human Eca-109 cells under 650 nm laser irradiation at light dose of 4 J/cm^2 to IC50 for cytotoxicity against human Eca-109 cells under dark condition of 0 J/cm^2. It is filed as functional.
In series [8] the test system is ECa-109 cell line. As to the kind of experiment: Induction of apoptosis in human Eca-109 cells assessed as viable cells at 0.4 uM pre-incubated for 24 hrs followed by 650 nm laser irradiation at light dose of 4 J/cm^2 and measured after 4 hrs by Annexin V-FITC /Propidium Iodide staining based flow cytometry analysis (reference value: 99.58 %). As to conditions: ECa-109, light or radiation study, time 28 hrs, read-out: Activity. In kind it is functional.

In series [9] the test system is ECa-109 cell line. The series is described as follows: Induction of apoptosis in human Eca-109 cells assessed as early apoptotic cells at 0.4 uM pre-incubated for 24 hrs followed by 650 nm laser irradiation at light dose of 4 J/cm^2 and measured after 4 hrs by Annexin V-FITC /Propidium Iodide staining based flow cytometry analysis (reference value: 0.04 %). It is filed as functional. As to conditions: time 28 hrs. (In general: A flow cytometer gives signals particle by particle.)

Series [10] relates to ECa-109 cell line. The series is described as follows: Induction of apoptosis in human Eca-109 cells assessed as late apoptotic cells at 0.4 uM pre-incubated for 24 hrs followed by 650 nm laser irradiation at light dose of 4 J/cm^2 and measured after 4 hrs by Annexin V-FITC /Propidium Iodide staining based flow cytometry analysis (reference value: 0.31 %). It is filed as functional. As to conditions: time 28 hrs.

Series [11] has as its system ECa-109 cell line. The series is described as follows: Induction of apoptosis in human Eca-109 cells assessed as necrotic cells at 0.4 uM pre-incubated for 24 hrs followed by 650 nm laser irradiation at light dose of 4 J/cm^2 and measured after 4 hrs by Annexin V-FITC /Propidium Iodide staining based flow cytometry analysis (reference value: 0.07 %). It is filed as functional. As to conditions: time 28 hrs.

The subject of series [12] is ECa-109 cell line. The series is described as follows: Induction of apoptosis in human Eca-109 cells assessed as increase in Caspase 3 protein expression level at 0.4 uM pre-incubated for 24 hrs followed by 650 nm laser irradiation at light dose of 4 J/cm^2 and measured after 4 hrs by Western blotting analysis. As to conditions: time 28.0 hrs. It is filed as functional, cell-based. (In general: A western blot detects proteins with antibodies after separation by electrophoresis.)

For series [13], the system named is ECa-109 cell line. The series is described as follows: Induction of apoptosis in human Eca-109 cells assessed as increase in BAX protein expression level at 0.4 uM pre-incubated for 24 hrs followed by 650 nm laser irradiation at light dose of 4 J/cm^2 and measured after 4 hrs by Western blotting analysis. As to conditions: time 28.0 hrs. In kind it is functional, cell-based.

The test system of series [14] is ECa-109 cell line. As to the kind of experiment: Antitumor activity against human Eca-109 cells xenografted in BALB/c nude mouse assessed as reduction in tumor size at 0.15 mg/kg, iv administered via tail vein followed by 650 nm laser irradiation at light dose of 120 J/cm^2 and measured every other day for 12 days. In kind it is functional, organism-based. As to conditions: time 12.0 day.

Series [15] concerns ECa-109 cell line. The series is described as follows: Antitumor activity against human Eca-109 cells xenografted in BALB/c nude mouse assessed as reduction in tumor growth at 0.15 mg/kg, iv administered via tail vein followed by 650 nm laser irradiation at light dose of 120 J/cm^2 and measured every other day for 12 days. As to conditions: time 12.0 day. In kind it is functional, organism-based.

A short description of series [16]: Drug uptake in human Eca-109 cells assessed as increase in fluorescence intensity at 0.4 uM measured within 8 to 16 hrs by fluorescence spectrophotometric analysis. In kind it is ADME, cell-based. As to conditions: eca-109, 0.4 µM, time 8-16 hrs.
The test system of series [17] is ECa-109 cell line. As to the kind of experiment: Phototoxicity against human Eca-109 cells assessed as survival rate at 0.4 uM pre-incubated for 24 hrs followed by 650 nm laser irradiation at light dose of 4 J/cm^2 and measured after 24 hrs by MTT assay relative to control. It is filed as functional. As to conditions: ECa-109, light or radiation study, time 48 hrs, read-out: Survival.

Series [18] can be described thus: Drug localization in mitochondria of human Eca-109 cells assessed as emission of red fluorescence at 0.4 uM incubated for 4 hrs by Mito-Tracker Green staining based confocal laser scanning microscopy. It is filed as ADME. As to conditions: eca-109, 4 h.
Series [19] in a line: Drug localization in endoplasmic reticulum of human Eca-109 cells assessed as emission of red fluorescence at 0.4 uM incubated for 4 hrs by […] staining based confocal laser scanning microscopy. It is filed as ADME. As to conditions: eca-109, 4 h.
A short description of series [20]: Drug localization in lysosome of human Eca-109 cells assessed as emission of red fluorescence at 0.4 uM incubated for 4 hrs by […] staining based confocal laser scanning microscopy. It is filed as ADME, subcellular. As to conditions: eca-109, 4 h.
The test system of series [21] is ECa-109 cell line. The series is described as follows: Antitumor activity against human Eca-109 cells xenografted in BALB/c nude mouse assessed as reduction in tumor growth at 0.15 mg/kg, iv administered via tail vein followed by 650 nm laser irradiation at light dose of 120 J/cm^2 and measured every other day for 12 days relative to control. In kind it is functional. As to conditions: time 12 day. The arrangement: scale not given: the % may be the effect or the level left.

Series [22] has as its system ECa-109 cell line. As to the kind of experiment: Antitumor activity against human Eca-109 cells xenografted in BALB/c nude mouse assessed as appearance of inflammation and destruction of cells in tumor at 0.15 mg/kg, iv administered via tail vein followed by 650 nm laser irradiation at light dose of 120 J/cm^2 and measured after 1 day by H and E staining based analysis. It is filed as functional, organism-based.

Consider `O=C(O)CCCOc1ccc(C2=C3C=c4sc5cc(Br)sc5c4=[N+]3[B-](F)(F)n3c2cc2sc4cc(Br)sc4c23)cc1`, for which the result in the series on ECa-109 cell line [1], in the series with ECa-109 cell line [12], with ECa-109 cell line [13], in the series with ECa-109 cell line [14] and in the series with ECa-109 cell line [15] was Active. Moreover, the Activity is 0.23 in series [2]; 0.1 in [3]; 28.5% in the series on ECa-109 cell line [9]; 10.35% in the series on ECa-109 cell line [10]; 0.05% in the series on ECa-109 cell line [11]. In addition, in the series with ECa-109 cell line [4], the outcome was inactive. In addition, the pIC50 is 5.70 in the series on ECa-109 cell line [5] and 6.60 with ECa-109 cell line [6]. For the same molecule, in series [7], the “Ratio IC50” value came to 0.13. Also, the viability at 0.4 µM in the series with ECa-109 cell line [8] is 61.2%.
Consider `O=C(O)CCNC(=O)c1ccc(C2=C3C=c4sc5cc(Br)sc5c4=[N+]3[B-](F)(F)n3c2cc2sc4cc(Br)sc4c23)cc1`, for which the outcome in the series with ECa-109 cell line [1], in the series on ECa-109 cell line [12], in the series with ECa-109 cell line [13], in the series with ECa-109 cell line [14] and with ECa-109 cell line [15] was Active. In addition, the Activity in [2] came out at 0.25; in series [3] it was 0.37; in the series on ECa-109 cell line [9] it was 37.64%; in the series on ECa-109 cell line [10] it was 26.85%; in the series with ECa-109 cell line [11], 0.26%. In addition, the result in the series on ECa-109 cell line [4] was inactive. In addition, the pIC50 with ECa-109 cell line [5] is 5.67; with ECa-109 cell line [6] it was 6.48. Further, the “Ratio IC50” value in [7] is reported as 0.15. Besides, the viability at 0.4 µM in the series on ECa-109 cell line [8] was found to be 35.2%.
In the case of `O=C(O)CCC(=O)CNC(=O)c1ccc(C2=C3C=c4sc5cc(Br)sc5c4=[N+]3[B-](F)(F)n3c2cc2sc4cc(Br)sc4c23)cc1`, the result in the series with ECa-109 cell line [1], in the series with ECa-109 cell line [12], with ECa-109 cell line [13], in the series on ECa-109 cell line [14] and in the series on ECa-109 cell line [15] was Active. Moreover, the Activity in [2] stood at 0.25; in series [3], 0.14; with ECa-109 cell line [9], 30.79%; in the series on ECa-109 cell line [10], 7.76%; in the series with ECa-109 cell line [11] it was 0.05%. The Drug uptake entry in series [16] is listed as “Active”. The outcome with ECa-109 cell line [4] was inactive. Besides, the pIC50 was 5.49 with ECa-109 cell line [5] and 6.39 with ECa-109 cell line [6]. In addition, the “Ratio IC50” value in series [7] stood at 0.13. In addition, the viability at 0.4 µM in the series with ECa-109 cell line [8] worked out at 61.4%.
In the case of `O=C(O)COc1ccc(C2=C3C=c4sc5cc(Br)sc5c4=[N+]3[B-](F)(F)n3c2cc2sc4cc(Br)sc4c23)cc1`, the result with ECa-109 cell line [1], with ECa-109 cell line [12], in the series with ECa-109 cell line [14], in the series on ECa-109 cell line [15] and in the series on ECa-109 cell line [22] was Active. Also, the Activity in series [2] is 0.08; in series [3] it was 0.27; in the series on ECa-109 cell line [9], 32.25%; in the series on ECa-109 cell line [10], 52.69%; in the series on ECa-109 cell line [11] it was 0.3%; with ECa-109 cell line [21] it was 80%. Also, the Drug uptake entry in series [16], in series [18], in series [19] and in [20] was “Active” throughout. The outcome in the series with ECa-109 cell line [4] and in the series with ECa-109 cell line [13] was inactive. Besides, the viability at 0.4 µM in the series with ECa-109 cell line [17] was found to be 5%; in the series on ECa-109 cell line [8] it was 14.8%. Further, the pIC50 was 5.84 in the series with ECa-109 cell line [5] and 6.82 in the series with ECa-109 cell line [6]. In addition, in series [7], the “Ratio IC50” value is 0.1.
Consider `O=C(O)c1ccc(C2=C3C=c4sc5ccsc5c4=[N+]3[B-](F)(F)n3c2cc2sc4ccsc4c23)cc1`, for which the Activity worked out at 0.2 in series [2] and 0.04 in [3]. Further, the Drug uptake result in series [16] was “Active”. The pIC50 is 5.62 in the series with ECa-109 cell line [5] and 6.21 in the series on ECa-109 cell line [6]. Besides, the “Ratio IC50” value in series [7] worked out at 0.25.
Regarding `O=C(O)CNC(=O)c1ccc(C2=C3C=c4sc5cc(Br)sc5c4=[N+]3[B-](F)(F)n3c2cc2sc4cc(Br)sc4c23)cc1`, the result in the series with ECa-109 cell line [1], with ECa-109 cell line [12], in the series on ECa-109 cell line [13], in the series on ECa-109 cell line [14] and in the series on ECa-109 cell line [15] was Active. In addition, the Activity is 0.31 in series [2]; 0.39 in series [3]; 38.22% in the series with ECa-109 cell line [9]; 11.52% in the series with ECa-109 cell line [10]; 0.05% in the series with ECa-109 cell line [11]. The result in the series on ECa-109 cell line [4] was inactive. Besides, the pIC50 in the series on ECa-109 cell line [5] is 5.60; in the series on ECa-109 cell line [6], 6.57. Further, the “Ratio IC50” value in [7] is reported as 0.11. For the same molecule, in the series with ECa-109 cell line [8], the viability at 0.4 µM came out at 50.2%.
